Reference: patent EP0992493A1, “Substituted benzoylpiperidine derivatives and their use as Neurokinin antagonists” (PFIZER INC., priority 1998, dated 2000)
Structures can show the parent of a compound that is named as a salt. Where two headings read alike, the source gives them in different places.

What was measured:
NK3 receptor = target: T1, NK3 receptor (Cavia porcellus, UniProt P30098); assay: NK3 receptor affinity: inhibition of [3H]-senktide binding to guinea pig cortex membranes
T1 construct: membranes from guinea pig cortex; from tissue; host or cells: guinea pig cortex membranes
T1 sequence (P30098 1-440): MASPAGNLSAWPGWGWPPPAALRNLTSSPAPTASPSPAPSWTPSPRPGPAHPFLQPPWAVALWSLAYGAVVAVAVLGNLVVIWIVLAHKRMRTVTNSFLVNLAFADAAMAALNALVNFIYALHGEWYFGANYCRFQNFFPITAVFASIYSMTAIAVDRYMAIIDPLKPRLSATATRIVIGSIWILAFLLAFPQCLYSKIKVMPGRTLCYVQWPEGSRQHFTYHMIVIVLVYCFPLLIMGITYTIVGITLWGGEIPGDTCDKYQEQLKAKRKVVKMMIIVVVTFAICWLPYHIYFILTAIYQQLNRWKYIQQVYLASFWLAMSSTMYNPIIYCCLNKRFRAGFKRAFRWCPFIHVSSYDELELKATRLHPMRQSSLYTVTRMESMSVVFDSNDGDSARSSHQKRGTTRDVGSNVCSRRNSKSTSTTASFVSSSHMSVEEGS
Experimental: The compounds of the formula (I) and their salts can be tested for NK3 receptor affinity, in vitro, by testing their ability to inhibit [^3H]-senktide binding to membranes from guinea pig cortex using the method of Guard, et al, Br.J.Pharmacol., 99, 767-773 (1990).
NK3 receptor affinity was tested, in vitro, by the method described on pages 10 and 11 by testing the ability to inhibit [^3H]-senktide binding to membranes from guinea pig cortex using the method of Guard, et al, Br.J.Pharmacol., 99, 767-773 (1990). The pKi was then determined.
(§1) The "pKi" measurement is the negative logarithm of the molar affinity of the test compound for the receptor as determined in radioligand binding assays using standard protocols. A 1.0 log. unit difference in either the NK2 or NK3 receptor affinity figures corresponds to a 10-fold activity difference.

[1] = In vitro metabolic stability: disappearance half-life in human liver microsomes (HLM/37); assay type: in vitro ADME; conditions: human liver microsomes HLM/37 (0.5µM cytochrome P450), test compound 1µM, 37°C, NADPH, 60 minutes
Experimental: The in vitro metabolic stability of the compounds of the formula (I) and their salts can be tested by incubating samples for 1 hour at 37°C in the presence of a "moderate activity" (re. concentrations of cytochrome p450 enzymes present) human liver microsomal preparation (prepared from human liver homogenates). The samples were analysed by HPLC at regular intervals during this one hour period and the half-life (t½) determined (in minutes).
The metabolic stability of the compounds was determined in vitro by the method described on page 11 according to the following experimental protocol.
Transplant-quality human liver tissue was obtained from the International Institute for the Advancement of Medicine (Exton, PA). The donors ranged in age from 26 to 65 years old and included 3 males and 3 females. Hepatic microsomes were prepared from individual human livers by the process of differential centrifugation. Briefly, the liver tissue was homogenised in 50mM Tris HCI (pH 7.4) containing 250mM sucrose and then centrifuged at 9,000G for 20 minutes to remove the cell debris and nuclear fraction. The supernatant layer was removed and further centrifuged at 105,000G for 60 minutes to pellet the microsomal fraction. […] The cytochrome P450 content was determined using the method of Omura, T., Sato, R., J. Biol. Chem., 239, 2379-2385 (1964) and the protein concentration was determined using the method of Lowry et al., J. Biol. Chem., 193, 265-275 (1951), with bovine serum albumin as the protein standard.
The metabolic activities of the 6 major drug metabolising cytochrome P450 enzymes were determined for HLM/37 and compared to values obtained from a bank of individual human livers (n = 19). […]
Aliquots (100µl) were removed from the incubation at 0, 3, 5, 10, 15, 20, 30, 45 and 60 minutes after the addition of NADPH. […] After centrifugation 150µl aliquots were removed and 120µl of each of these analysed by HPLC on a Hypersil HS C18 5µ column (50x4.6mm) with a mobile phase of methanol:water (90:10, by volume) containing 2mM ammonium acetate. […]

human NK2 receptor = target: T2, human NK2 receptor (Homo sapiens, UniProt P21452); assay: Human NK2 receptor affinity: competition with [3H]-NKA for binding to CHO cell membranes
T2 sequence (P21452 1-398): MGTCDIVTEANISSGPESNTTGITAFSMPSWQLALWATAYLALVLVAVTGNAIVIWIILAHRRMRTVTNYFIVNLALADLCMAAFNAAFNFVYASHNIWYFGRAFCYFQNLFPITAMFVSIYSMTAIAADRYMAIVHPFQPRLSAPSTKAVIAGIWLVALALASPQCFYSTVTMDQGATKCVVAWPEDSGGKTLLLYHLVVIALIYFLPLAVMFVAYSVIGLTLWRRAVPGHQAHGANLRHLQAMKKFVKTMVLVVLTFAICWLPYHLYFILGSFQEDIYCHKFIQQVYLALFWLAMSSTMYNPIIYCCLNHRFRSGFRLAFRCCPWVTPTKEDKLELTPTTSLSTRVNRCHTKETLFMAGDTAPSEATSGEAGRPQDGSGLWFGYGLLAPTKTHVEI
Experimental: The affinity of the compounds of formula (I) and their salts for the human NK2 receptor can be tested in vitro by testing their ability to compete with [^3H]-NKA (neurokinin A) for binding to membranes prepared from Chinese hamster ovary cells expressing the cloned human NK2 receptor. In this method, washed Chinese hamster ovary cell membranes are prepared as described for the previous method where IM9 cells are used instead. The membranes are incubated (90 min, 25°C) with [^3H]-NKA and with a range of concentrations of the test compound. Non-specific binding was determined in the presence of 10µM NKA.
Human NK2 receptor affinity was tested in vitro by testing the ability to compete with [^3H]-NKA for binding to membranes prepared from Chinese hamster ovary cells expressing the cloned human NK2 receptor using the method set out on page 10. The pKi was then determined.
as §1

SMILES | Ki (NK3 receptor) [nM] | half-life at 1 µM [1] [min] | Ki (human NK2 receptor) [nM] | Ki (NK3 receptor; [3H]-senktide, membranes from guinea pig cortex, read-out: pKi (NK3) (converted)) [nM] | Ki (human NK2 receptor; [3H]-NKA, membranes from Chinese hamster ovary cells expressing the cloned human NK2 receptor, 90 min, 25°C, read-out: pKi (NK2) (converted)) [nM]
CS(=O)(=O)N1CCC(C2CN(CC[C@]3(c4ccc(Cl)c(Cl)c4)CCCN(C(=O)c4ccccc4)C3)C2)CC1 [Example 6, 3(S)-1-Benzoyl-3-(3,4-dichlorophenyl)-3-{2-[3-(1-methylsulphonyl-4-piperidinyl)azetidin-1-yl]ethyl}piperidine hydrochloride] | 39.8 | 53 | 5.01 |  | 
O=C(c1ccccc1)N1CCC[C@](CCN2CCC(C3CCOCC3)CC2)(c2ccc(Cl)c(Cl)c2)C1 [Example 2] |  | 28 |  | 63.1 | 6.31
CS(=O)(=O)N1CC(C2CCN(CC[C@]3(c4ccc(Cl)c(Cl)c4)CCCN(C(=O)c4ccccc4)C3)CC2)C1 [Example 10, 3(S)-1-Benzoyl-3-(3,4-dichlorophenyl)-3-{2-[4-(1-methylsulfonylazetidin-3-yl)piperidin-1-yl]ethyl}piperidine] | 20 | 32 | 5.01 |  | 
